In brackets after ≈: the same amount, converted by molar mass. Activity calls are given as the source filed them. The rule behind the calls is not given here.
What was measured:
[1] = test system: Mycobacterium tuberculosis; assay: Antitubercular activity against Mycobacterium tuberculosis H37Rv ATCC 27294 by microplate alamar blue assay; assay type: functional
[2] = test system: Mycobacterium tuberculosis; assay: Antitubercular activity against Mycobacterium tuberculosis H37Rv by microplate alamar blue assay; assay type: functional
[3] = test system: Mycobacteroides abscessus; assay: Antibacterial activity against Mycobacterium abscessus ATCC 19977 incubated for 3 days by microplate alamar blue assay; assay type: functional; conditions: ATCC 19977, 72 h, time 3 day
Mycobacteroides chelonae [4] = assay: Antibacterial activity against Mycobacteroides chelonae ATCC 35752 incubated for 3 days by microplate alamar blue assay; assay type: functional; conditions: ATCC 35752, 72 h, time 3 day
Mycobacterium marinum [5] = assay: Antibacterial activity against Mycobacterium marinum ATCC 927 incubated for 5 days by microplate alamar blue assay; assay type: functional; conditions: ATCC 927, 120 h, time 5 day
Mycobacterium avium [6] = assay: Antibacterial activity against Mycobacterium avium ATCC 15769 incubated for 6 days by microplate alamar blue assay; assay type: functional; conditions: ATCC 15769, 144 h, time 6 day
Mycobacterium kansasii [7] = assay: Antibacterial activity against Mycobacterium kansasii ATCC 12478 incubated for 7 days by microplate alamar blue assay; assay type: functional; conditions: ATCC 12478, 168 h, time 7 day
Enterococcus faecium = assay: Antibacterial activity against Enterococcus faecium by microplate alamar blue assay; assay type: functional
Staphylococcus aureus = assay: Antibacterial activity against Staphylococcus aureus by microplate alamar blue assay; assay type: functional
Klebsiella pneumoniae = assay: Antibacterial activity against Klebsiella pneumoniae by microplate alamar blue assay; assay type: functional
Acinetobacter baumannii = assay: Antibacterial activity against Acinetobacter baumannii by microplate alamar blue assay; assay type: functional
Pseudomonas aeruginosa = assay: Antibacterial activity against Pseudomonas aeruginosa by microplate alamar blue assay; assay type: functional
Klebsiella aerogenes = assay: Antibacterial activity against Enterobacter aerogenes by microplate alamar blue assay; assay type: functional
Candida albicans = assay: Antifungal activity against Candida albicans by microplate alamar blue assay; assay type: functional
[8] = test system: Mycobacteroides abscessus; assay: Antibacterial activity against Mycobacterium abscessus ATCC 19977 assessed as growth inhibition at 100 ug/ml incubated for 3 days by microplate alamar blue assay relative to control; assay type: functional; conditions: ATCC 19977, 72 h, time 3 day, read-out: GI
Mycobacteroides chelonae [9] = assay: Antibacterial activity against Mycobacteroides chelonae ATCC 35752 assessed as growth inhibition at 100 ug/ml incubated for 3 days by microplate alamar blue assay relative to control; assay type: functional; conditions: ATCC 35752, 72 h, time 3 day, read-out: GI
Mycobacterium marinum [10] = assay: Antibacterial activity against Mycobacterium marinum ATCC 927 assessed as growth inhibition at 100 ug/ml incubated for 5 days by microplate alamar blue assay relative to control; assay type: functional; conditions: ATCC 927, 120 h, time 5 day, read-out: GI
Mycobacterium avium [11] = assay: Antibacterial activity against Mycobacterium avium ATCC 15769 assessed as growth inhibition at 100 ug/ml incubated for 6 days by microplate alamar blue assay relative to control; assay type: functional; conditions: ATCC 15769, 144 h, time 6 day, read-out: GI
Mycobacterium kansasii [12] = assay: Antibacterial activity against Mycobacterium kansasii ATCC 12478 assessed as growth inhibition at 100 ug/ml incubated for 7 days by microplate alamar blue assay relative to control; assay type: functional; conditions: ATCC 12478, 168 h, time 7 day, read-out: GI
[13] = test system: Mycobacterium tuberculosis; assay: Antitubercular activity against Mycobacterium tuberculosis KMA 1354 by microplate alamar blue assay; assay type: functional
[14] = test system: Mycobacterium tuberculosis; assay: Antitubercular activity against Mycobacterium tuberculosis KMA 3899 by microplate alamar blue assay; assay type: functional
[15] = test system: Mycobacterium tuberculosis; assay: Antitubercular activity against Mycobacterium tuberculosis KMA 4244 by microplate alamar blue assay; assay type: functional
[16] = test system: Mycobacterium tuberculosis; assay: Antitubercular activity against Mycobacterium tuberculosis KMA 4439 by microplate alamar blue assay; assay type: functional
[17] = test system: Mycobacterium tuberculosis; assay: Antitubercular activity against Mycobacterium tuberculosis KMA 5282 by microplate alamar blue assay; assay type: functional
[18] = Cytotoxicity against African green monkey Vero cells measured after 3 days by resazurin dye based fluorescence assay; assay type: toxicity, cell-based; conditions: African green monkey (Chlorocebus sabaeus)
[19] = test system: Mycobacterium tuberculosis; assay: Bactericidal activity against Mycobacterium tuberculosis H37Rv measured up to 7 days by luminescence assay; assay type: functional; conditions: time <= 7 day
[20] = test system: Mycobacterium tuberculosis; assay: Antitubercular activity against Mycobacterium tuberculosis H37Rv assessed as post antibiotic affect up to 100 ug/ml measured daily for up to 14 days by luminescence assay; assay type: functional, organism-based; conditions: dose <= 100.0 µg/ml, time <= 14.0 day
Mitochondrial membrane [21] = assay: Induction of […] membrane potential loss in Mycobacterium tuberculosis H37Rv at <=MIC measured after 15 mins by DiOC2 dye based fluorescence assay; assay type: cell membranes
Mitochondrial membrane [22] = assay: Induction of […] membrane potential loss in Mycobacterium tuberculosis H37Rv at <=MIC measured after 24 hrs by DiOC2 dye based fluorescence assay; assay type: cell membranes
[23] = test system: Mycobacterium tuberculosis; assay: Synergistic antitubercular activity against Mycobacterium tuberculosis H37Rv assessed as bedaquiline MIC=>90 at 0.8 ug/ml by microplate alamar blue assay (reference value: 0.05 uM); assay type: functional; conditions: dose 0.8 µg/ml
[24] = test system: Mycobacterium tuberculosis; assay: Synergistic antitubercular activity against Mycobacterium tuberculosis H37Rv assessed as rifampin MIC=>90 at 0.8 ug/ml by microplate alamar blue assay (reference value: 0.06 uM); assay type: functional; conditions: dose 0.8 µg/ml
[25] = test system: Mycobacterium tuberculosis; assay: Synergistic antitubercular activity against Mycobacterium tuberculosis H37Rv assessed as isoniazid MIC=>90 at 0.8 ug/ml by microplate alamar blue assay (reference value: 0.12 uM); assay type: functional; conditions: dose 0.8 µg/ml
[26] = test system: Mycobacterium tuberculosis; assay: Synergistic antitubercular activity against Mycobacterium tuberculosis H37Rv in presence of bedaquiline by microplate alamar blue assay (reference value: 3.08 uM); assay type: functional
[27] = test system: Mycobacterium tuberculosis; assay: Synergistic antitubercular activity against Mycobacterium tuberculosis H37Rv in presence of rifampin by microplate alamar blue assay (reference value: 3.08 uM); assay type: functional
[28] = test system: Mycobacterium tuberculosis; assay: Synergistic antitubercular activity against Mycobacterium tuberculosis H37Rv in presence of isoniazid by microplate alamar blue assay (reference value: 3.08 uM); assay type: functional
[29] = test system: Mycobacterium tuberculosis; assay: Synergistic antitubercular activity against Mycobacterium tuberculosis H37Rv assessed as bedaquiline MIC=>90 at 0.4 ug/ml by microplate alamar blue assay (reference value: 0.05 uM); assay type: functional; conditions: dose 0.4 µg/ml
[30] = test system: Mycobacterium tuberculosis; assay: Synergistic antitubercular activity against Mycobacterium tuberculosis H37Rv assessed as rifampin MIC=>90 at 0.4 ug/ml by microplate alamar blue assay (reference value: 0.06 uM); assay type: functional; conditions: dose 0.4 µg/ml
[31] = test system: Mycobacterium tuberculosis; assay: Synergistic antitubercular activity against Mycobacterium tuberculosis H37Rv assessed as isoniazid MIC=>90 at 0.4 ug/ml by microplate alamar blue assay (reference value: 0.12 uM); assay type: functional; conditions: dose 0.4 µg/ml
[32] = test system: Mycobacterium tuberculosis; assay: Synergistic antitubercular activity against Mycobacterium tuberculosis H37Rv in presence of bedaquiline by microplate alamar blue assay (reference value: 2.59 uM); assay type: functional
[33] = test system: Mycobacterium tuberculosis; assay: Synergistic antitubercular activity against Mycobacterium tuberculosis H37Rv in presence of rifampin by microplate alamar blue assay (reference value: 2.59 uM); assay type: functional
[34] = test system: Mycobacterium tuberculosis; assay: Synergistic antitubercular activity against Mycobacterium tuberculosis H37Rv in presence of isoniazid by microplate alamar blue assay (reference value: 2.59 uM); assay type: functional

CC(C)N(C(=O)CCNCCC(c1ccccc1)c1ccccc1)C(C)C
MIC90 [1]: 3.11 µg/mL (≈ 8.48 µM) | MIC90 [2]: 2.97 µg/mL (≈ 8.1 µM) | MIC90 [3]: > 100 µg/mL | MIC90 (Mycobacteroides chelonae [4]): > 100 µg/mL | MIC90 (Mycobacterium marinum [5]): > 100 µg/mL | MIC90 (Mycobacterium avium [6]): > 100 µg/mL | MIC90 (Mycobacterium kansasii [7]): > 100 µg/mL | MIC90 (Enterococcus faecium): 95.8 µg/mL (≈ 261 µM) | MIC90 (Staphylococcus aureus): 96.5 µg/mL (≈ 263 µM) | MIC90 (Klebsiella pneumoniae): > 100 µg/mL | MIC90 (Acinetobacter baumannii): > 100 µg/mL | MIC90 (Pseudomonas aeruginosa): > 100 µg/mL | MIC90 (Klebsiella aerogenes): > 100 µg/mL | MIC90 (Candida albicans): > 100 µg/mL | inhibition of growth at 100 µg/mL [8]: 0% | inhibition of growth at 100 µg/mL (Mycobacteroides chelonae [9]): 74% | inhibition of growth at 100 µg/mL (Mycobacterium marinum [10]): 90% | inhibition of growth at 100 µg/mL (Mycobacterium avium [11]): 0% | inhibition of growth at 100 µg/mL (Mycobacterium kansasii [12]): 0% | MIC90 [13]: 4.58 µg/mL (≈ 12.5 µM) | MIC90 [14]: 4.68 µg/mL (≈ 12.8 µM) | MIC90 [15]: 6.11 µg/mL (≈ 16.7 µM) | MIC90 [16]: 8.79 µg/mL (≈ 24 µM) | MIC90 [17]: 8.73 µg/mL (≈ 23.8 µM) | IC50 at 3 days [18]: 45.9 µM | MBC99 [19]: 5480 µg/mL (≈ 15000 µM) | Activity [20]: inactive | Activity (Mitochondrial membrane [21]): inactive | Activity (Mitochondrial membrane [22]): inactive | MIC [23]: 0.03 µM | MIC [24]: 0.04 µM | MIC [25]: 0.12 µM | MIC [26]: 2.99 µg/mL | MIC [27]: 2.01 µg/mL | MIC [28]: 3.06 µg/mL

CC(C)N(C(=O)CCNCCCC1CCCC1)C(C)C
MIC90 [1]: 1.48 µg/mL (≈ 5.24 µM) | MIC90 [2]: 1.48 µg/mL (≈ 5.24 µM) | MIC90 [3]: > 100 µg/mL | MIC90 (Mycobacteroides chelonae [4]): > 100 µg/mL | MIC90 (Mycobacterium marinum [5]): > 100 µg/mL | MIC90 (Mycobacterium avium [6]): > 100 µg/mL | MIC90 (Mycobacterium kansasii [7]): > 100 µg/mL | MIC90 (Enterococcus faecium): 49.2 µg/mL (≈ 174 µM) | MIC90 (Staphylococcus aureus): 48.1 µg/mL (≈ 170 µM) | MIC90 (Klebsiella pneumoniae): > 100 µg/mL | MIC90 (Acinetobacter baumannii): > 100 µg/mL | MIC90 (Pseudomonas aeruginosa): > 100 µg/mL | MIC90 (Klebsiella aerogenes): > 100 µg/mL | MIC90 (Candida albicans): 49.6 µg/mL (≈ 176 µM) | inhibition of growth at 100 µg/mL [8]: 0% | inhibition of growth at 100 µg/mL (Mycobacteroides chelonae [9]): 18% | inhibition of growth at 100 µg/mL (Mycobacterium marinum [10]): 26% | inhibition of growth at 100 µg/mL (Mycobacterium avium [11]): 0% | inhibition of growth at 100 µg/mL (Mycobacterium kansasii [12]): 0% | MIC90 [13]: 1.8 µg/mL (≈ 6.37 µM) | MIC90 [14]: 1.54 µg/mL (≈ 5.45 µM) | MIC90 [15]: 2.92 µg/mL (≈ 10.3 µM) | MIC90 [16]: 3.11 µg/mL (≈ 11 µM) | MIC90 [17]: 4.37 µg/mL (≈ 15.5 µM) | IC50 at 3 days [18]: 69.7 µM | MBC99 [19]: 3020 µg/mL (≈ 10700 µM) | Activity [20]: inactive | Activity (Mitochondrial membrane [21]): inactive | Activity (Mitochondrial membrane [22]): inactive | MIC [29]: 0.04 µM | MIC [30]: 0.03 µM | MIC [31]: 0.12 µM | MIC [32]: 2.33 µg/mL | MIC [33]: 1.38 µg/mL | MIC [34]: 2.45 µg/mL

Reference: ChEMBL document CHEMBL6182867, “Discovery of ultra short β-peptoids with selective activity against drug-resistant Mycobacterium tuberculosis” (Eur J Med Chem, 2025)
